# According to patent US11248024B2, “Noxa-derived, cell death-inducing peptide eMTD” (INDUSTRY-ACADEMIC COOPERATION FOUNDATION, CHOSUN UNIVERSITY, priority 2019, dated 2022):
# Ends that are not written are not given here.
# What was measured:
# [1] = system: HeLa cells; assay: Intracellular calcium level, Fluo-4, confocal microscope; format: cell-based, human; conditions: Fluo-4, 20 μM (FIG. 4)
# Protocol: In order to examine the mechanism in which the peptide eMTD (SEQ ID NO: 1) induces cell death in cancer cell lines, a change in intracellular calcium level, which is known as an important factor for cell death, was observed using the calcium indicator Fluo-4 under a confocal microscope (Leica).
# In brief, HeLa cells were grown to about 70% confluency in a Lab-Tek chamber glass a day before the experiment. Immediately before the experiment, of the calcium indicator Fluo-4 was diluted to a concentration of 5 in HBSS. HeLa cells were incubated with the dilution for 10 min in an incubator and then treated with the peptide eMTDΔ4 (SEQ ID NO: 2).
# [2] = system: MDA-MB-231 cells; assay: Atomic force microscopy of pores formed on the cell membrane; format: cell-based
# Protocol: In this regard, MDA-MB-231 cells were treated with eMTDΔ4 (SEQ ID NO: 2) and pores formed on the cell membrane were observed using an atomic force microscope.
# [3] = system: HeLa cells; assay: Microscopic observation of morphological change in cells; format: cell-based, human; conditions: 20 μM, 3 min
# Protocol: In order to observe morphological changes in cells in detail, the cells were incubated with 20 μM of the peptide eMTDΔ4 (SEQ ID NO: 2) and observed with the aid of a microscope (Leica). The results are depicted in FIG. 2.
# [4] = system: mitochondria isolated from livers of BalB/C mice; assay: Mitochondrial swelling, absorbance at 540 nm / TEM; format: biochemical; conditions: for Mitochondrial swelling, relative absorbance at 540 nm: peptides 25 μM, Ca2+ 200 μM, CsA 20 μM
# Protocol: First, livers excised from 6-week-old BalB/C mice were immersed in buffer (250 mM mannitol, […], 5 mM HEPES, pH 7.4, 0.1 mM PMSF and 4 rotenone) and completely homogenized using a Teflon Potter-Elvehjem grinder (Sigma). The ground liver was centrifuged at 1000×g for 10 min at 4° C. and the supernatants were centrifuged at 10,000×g for 10 min at 4° C. The pellets thus obtained were suspended in a regeneration buffer (250 mM sucrose, 10 mM HEPES, pH 7.4, 5 mM sodium succinate, 2 mM potassium phosphate, 0.1 mM PMSF, 25 μM EGTA, and 4 rotenone).
# The mitochondria thus obtained were treated with 25 μM of eMTD (SEQ ID NO: 1) or eMTDΔ4 (SEQ ID NO: 2), followed by reading absorbance at 540 nm to determine mitochondrial swelling.
# [5] = system: CT26; assay: MTS assay, relative cell viability, CT26; format: cell-based, murine
# Protocol: (§1) Individual cell lines (HeLa, CT26, and B16F10) were purchased from the Korean Cell Line Bank. Dulbecco's modified Eagle's medium (DMEM), trypsin-EDTA, fetal bovine serum (FBS), and Hank's balanced salt solution (HBSS) were products from Gibco (Thermo Fisher).
# (§2) Each of the cell lines was cultured in DMEM supplemented with 10% FBS in an incubator maintained at 37° C. and 5% 002.
# Examination was made to see whether the peptide has the activity of inducing cell death in other cancer cell lines. […]
# [6] = system: B16F10; assay: MTS assay, relative cell viability, B16F10; format: cell-based, murine
# Protocol: as §1, §2
# Examination was made to see whether the peptide has the activity of inducing cell death in other cancer cell lines. In this regard, the cancer cell lines HeLa, CT26, and B16F10 were treated with eMTDΔ4 (SEQ ID NO: 2) at concentrations of 0, 20, and 40 μM.
# [7] = system: HeLa cells; assay: Mitochondrial ROS generation, MitoSox, confocal; format: cell-based, human; conditions: MitoSox 5 μM, 10 min, 20 μM peptide (FIG. 8)
# Protocol: In brief, HeLa cells were grown to 70% confluency on a Lab-Tek chamber glass slide one day before the experiment. The cells were stained for 10 min with 5 μM of the mitochondrial ROS indicator MitoSox (Invitrogen) in order to visualize ROS generation. Then, the cells were incubated with eMTDΔ4 (SEQ ID NO: 2) for 10 min during which confocal micrographic images were taken to monitor cell morphologies and ROS generation.
# [8] = Two-step assay, damage on lipid membrane of liposomes (TbCl3/DPA fluorescence); format: biochemical; conditions: for Relative Fluorescence Intensity: liposomes, excitation 276 nm, read at 490 nm
# Protocol: In brief, DOPS, DOPE, and DOPC (Avanti Polar Lipids) were dissolved at the ratio of 2:4:3 in chloroform, followed by vaporization. The residue was again dissolved at the concentration of 2 mg/mL in TbCl3 buffer (15 mM TbCl3, 50 mM sodium citrate, 20 mM HEPES, 150 mM NaCl, pH 7.4). The lipid mixture was extruded by Mini extruder (Avanti Polar Lipids) with a 400 nm to prepare liposomes which were washed with washing buffer (150 mM NaCl, 20 mM HEPES, pH 7.4) and then resuspended in an assay buffer (50 DPA, […], 20 mM HEPES, pH 7.4). The suspension was plated into 96-well plates and treated with 0, 10, or 25 μM of eMTD (SEQ ID NO: 1) or eMTDΔ4 (SEQ ID NO: 2). After stimulation with 276 nm laser, fluorescence was read at 490 nm.
# [9] = system: HeLa; assay: MTS assay, relative cell viability, HeLa; format: cell-based, human; conditions: 10 μM, Table 4
sequence,measurement,setting,value
KLNFRQKLLNLISKLF [eMTDΔ4],change in intracellular calcium level,[1],calcium influx into the cytosols thereof within less than one min
same,Counts of membrane pores,"[2]; Length 0.675~0.975, t = 30 sec",38.03
same,Counts of membrane pores,"[2]; Length 0.675~0.975, t = 2 min",20.63
same,Counts of membrane pores,"[2]; Length 0.675~0.975, t = 5 min",14.81
same,Counts of membrane pores,"[2]; Length 0.675~0.975, t = 40 min",2.5
same,Counts of membrane pores,"[2]; Length 1.025~1.325, t = 30 sec",43.66
same,Counts of membrane pores,"[2]; Length 1.025~1.325, t = 2 min",38.1
same,Counts of membrane pores,"[2]; Length 1.025~1.325, t = 5 min",39.51
same,Counts of membrane pores,"[2]; Length 1.025~1.325, t = 40 min",22.5
same,Counts of membrane pores,"[2]; Length 1.375~1.675, t = 30 sec",9.859
same,Counts of membrane pores,"[2]; Length 1.375~1.675, t = 2 min",20.63
same,Counts of membrane pores,"[2]; Length 1.375~1.675, t = 5 min",20.99
same,Counts of membrane pores,"[2]; Length 1.375~1.675, t = 40 min",22.5
same,Counts of membrane pores,"[2]; Length 1.725~2.025, t = 30 sec",4.225
same,Counts of membrane pores,"[2]; Length 1.725~2.025, t = 2 min",14.29
same,Counts of membrane pores,"[2]; Length 1.725~2.025, t = 5 min",13.58
same,Counts of membrane pores,"[2]; Length 1.725~2.025, t = 40 min",22.5
same,Counts of membrane pores,"[2]; Length 2.075~2.725, t = 30 sec",2.817
same,Counts of membrane pores,"[2]; Length 2.075~2.725, t = 2 min",6.349
same,Counts of membrane pores,"[2]; Length 2.075~2.725, t = 5 min",9.877
same,Counts of membrane pores,"[2]; Length 2.075~2.725, t = 40 min",22.5
same,Counts of membrane pores,"[2]; Length 2.775<, t = 30 sec",0
same,Counts of membrane pores,"[2]; Length 2.775<, t = 2 min",0
same,Counts of membrane pores,"[2]; Length 2.775<, t = 5 min",1.235
same,Counts of membrane pores,"[2]; Length 2.775<, t = 40 min",7.5
same,Counts of membrane pores,"[2]; Length >0.625, t = 30 sec",1.408
same,Counts of membrane pores,"[2]; Length >0.625, t = 2 min",0
same,Counts of membrane pores,"[2]; Length >0.625, t = 5 min",0
same,Counts of membrane pores,"[2]; Length >0.625, t = 40 min",0
same,pore formation on cell membrane (in words),"[2]; MDA-MB-231, FIG. 10d and Table 7",larger pores were formed with time
same,morphological change in cells,[3],most of the cells were observed to undergo necrosis with the consequent rupture of cell membranes after 3 min
same,mitochondrial swelling (in words),"[4]; 25 μM, absorbance 540 nm and TEM, FIGS. 6A and 6B",induce mitochondrial swelling
same,"Mitochondrial swelling, relative absorbance at 540 nm",[4]; Minute 0,100%
same,"Mitochondrial swelling, relative absorbance at 540 nm",[4]; Minute 10,79%
same,"Mitochondrial swelling, relative absorbance at 540 nm",[4]; Minute 20,74%
same,"Mitochondrial swelling, relative absorbance at 540 nm",[4]; Minute 30,70%
same,"Mitochondrial swelling, relative absorbance at 540 nm",[4]; Minute 40,68%
same,"Mitochondrial swelling, relative absorbance at 540 nm",[4]; Minute 50,66%
same,"Mitochondrial swelling, relative absorbance at 540 nm",[4]; Minute 60,65%
same,Viability (%),"[5]; CT26, 10 μM",69%
same,Viability (%),"[5]; CT26, 20 μM",21%
same,induction of cell death (in words),"[5]; CT26, FIG. 3 and Table 4",induce cell death
same,Viability (%),"[6]; B16F10, 10 μM",68%
same,Viability (%),"[6]; B16F10, 20 μM",33%
same,induction of cell death (in words),"[6]; B16F10, FIG. 3 and Table 4",induce cell death
same,mitochondrial ROS level,[7],abruptly increased in ROS level just after the cell membrane bubbling
same,liposome lipid membrane damage (in words),[8]; FIGS. 10A to 10C and Table 6,higher fluorescence intensity was detected
same,Relative Fluorescence Intensity,[8]; 10 μM,25%
same,Relative Fluorescence Intensity,[8]; 25 μM,51%
same,Viability (%),[9],47%
